In one data set the target is T1, human Y1 receptor (Homo sapiens, UniProt P25929).
T1 construct: expressed in transfected cells; host or cells: BHK-21 clone 6-482-8, IPTG-induced (membrane preparation)
T1 sequence (P25929 1-384): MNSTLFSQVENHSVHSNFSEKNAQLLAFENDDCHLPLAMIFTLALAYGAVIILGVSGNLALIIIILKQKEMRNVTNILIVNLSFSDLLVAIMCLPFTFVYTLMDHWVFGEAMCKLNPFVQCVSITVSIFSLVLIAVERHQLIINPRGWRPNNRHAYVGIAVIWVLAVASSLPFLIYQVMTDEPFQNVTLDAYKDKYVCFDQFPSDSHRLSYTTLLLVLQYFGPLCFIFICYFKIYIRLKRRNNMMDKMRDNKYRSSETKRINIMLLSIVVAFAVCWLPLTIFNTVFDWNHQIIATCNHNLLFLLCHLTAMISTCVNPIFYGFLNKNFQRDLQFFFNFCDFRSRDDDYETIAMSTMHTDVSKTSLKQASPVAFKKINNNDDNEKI
The experiment in a line: Scintillation proximity assay (SPA) receptor binding, Y1. The method, then: (§1) The purpose of this example is to test the in vitro binding of the PYY compounds to the Y1, Y2, Y4 and Y5 receptor subtypes, respectively. The receptor binding affinity is a measure of affinity of a compound for the human Y1, Y2, Y4 and Y5 receptor subtypes, respectively.
(§2) Scintillation Proximity Assay (SPA)
(§3) NPY-Receptor Expressing Cell Lines.
(§4) All cells were cultured at +37° C. in a humidified atmosphere with 5% CO2. […] CHO-K1 cells stably expressing the human Y2 receptor (P49146, NPY2R_HUMAN, Uniprot) were cultured in DMEM F-12 with 10% FBS, 1% P/S, 150 μg/ml Hygromycin B and 10 μg/ml Puromycin antibiotic. CHO-K1 cells stably expressing the human Y4 receptor (P50391, NPY4R_HUMAN, Uniprot) were cultured in DMEM F-12 with 10% FBS, 1% P/S, 10 μg/ml Puromycin. HEK-293 cells stably expressing the human Y5 receptor (Q15761, NPY5R_HUMAN, Uniprot) were cultured in DMEM F-12 medium containing 10% FBS, 1% Penicillin-Streptomycin, 250 μg/ml G418 and 1 μg/ml puromycin.
(§5) The homogenate was centrifuged at 35000 g using an ultracentrifuge for 10 minutes at +4° C. and the supernatant was discarded and fresh homogenization buffer added. Homogenization of the pellet was repeated a total of three times.
(§6) Human Y receptor SPA binding assay were performed in white 96-well plates in a total volume of 200 μl per well.
(§7) Plates were sealed and incubated at +25° C. for 2 hours in a plate shaker set at 400 rpm and thereafter centrifuged at 1500 rpm for 10 minutes prior to reading of luminescence on a microplate scintillation and luminescence counter. […] Displacement of radioligand was measured as reduction in luminescence and IC50 values were calculated by nonlinear regression analysis of sigmoidal dose-response curves.

The target in a further data set is T2, human Y4 receptor (Homo sapiens, UniProt P50391).
T2 construct: expressed in transfected cells; host or cells: CHO-K1 (membrane preparation)
The experiment in a line: Scintillation proximity assay (SPA) receptor binding, Y4. The following applies: Y4 Ki, membranes of CHO-K1 cells, [125I]-Pancreatic Polypeptide. The method, then: as §1, §2, §3, §4, §5, §6, §7

A short description of data set [1]: Pharmacokinetic study in minipigs after i.v. administration. The following applies: female, Göttingen, minipig, plasma, iv, 15 nmol/kg; read-out: Half-life (t½) (converted). The data set is classed as in vivo. The text has this:
By terminal half-life is generally meant the period of time it takes to halve a certain plasma concentration, measured after the initial distribution phase.
After minimum 2 weeks of acclimatization two permanent central venous catheters were implemented in vena cava caudalis in each animal. After surgery the animals were in their normal individual pens during the pharmacokinetic experiments.
On day 1 the catheters are coupled to extension tubes, which will be removed at the end of day 1. […] Samples were kept on wet ice until centrifugation (10 min, 4° C., 1942 g).
Plasma concentration-time profiles was analysed by a non-compartmental pharmacokinetics analysis using Phoenix (Pharsight Inc., Mountain View, Calif., USA). Calculations were performed using individual concentration-time values from each animal.

In another data set the target is T3, human Y2 receptor (Homo sapiens, UniProt P49146).
T3 construct: expressed in transfected cells; host or cells: CHO-K1 (membrane preparation)
T3 sequence (P49146 1-381): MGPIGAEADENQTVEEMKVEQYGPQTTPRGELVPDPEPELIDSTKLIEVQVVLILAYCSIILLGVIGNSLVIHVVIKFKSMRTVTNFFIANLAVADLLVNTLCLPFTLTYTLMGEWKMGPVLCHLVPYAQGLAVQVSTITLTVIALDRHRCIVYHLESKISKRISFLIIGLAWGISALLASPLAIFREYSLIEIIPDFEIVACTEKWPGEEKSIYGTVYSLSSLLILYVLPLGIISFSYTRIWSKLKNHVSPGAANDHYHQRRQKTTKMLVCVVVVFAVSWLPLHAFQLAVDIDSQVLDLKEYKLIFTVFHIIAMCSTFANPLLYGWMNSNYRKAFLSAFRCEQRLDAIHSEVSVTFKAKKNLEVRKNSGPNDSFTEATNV
The experiment in a line: Scintillation proximity assay (SPA) receptor binding, Y2. The method, then: as §1, §2, §3
as §4, with “puromycin. […]” for “puromycin.”
as §7
(SPA uses beads or plates that emit light when radiolabelled molecules are held near them.)

Some results are limits rather than exact numbers.

T2 sequence (P50391 whole entry): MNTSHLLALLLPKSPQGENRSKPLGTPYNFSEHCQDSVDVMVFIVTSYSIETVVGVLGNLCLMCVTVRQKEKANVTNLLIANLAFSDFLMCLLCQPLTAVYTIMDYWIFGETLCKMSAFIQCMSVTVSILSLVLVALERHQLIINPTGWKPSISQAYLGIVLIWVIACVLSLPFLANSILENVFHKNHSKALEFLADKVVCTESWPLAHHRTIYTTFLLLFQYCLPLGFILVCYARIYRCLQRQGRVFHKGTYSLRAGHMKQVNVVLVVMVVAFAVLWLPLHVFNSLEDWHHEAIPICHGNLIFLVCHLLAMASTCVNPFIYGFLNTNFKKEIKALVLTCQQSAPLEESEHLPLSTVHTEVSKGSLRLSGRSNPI

With `CC(C)CC(=O)N[C@@H](CCCNC(=N)N)C(=O)N1CCC[C@H]1C(=O)N[C@@H](CCC(=O)O)C(=O)N[C@@H](C)C(=O)N1CCC[C@H]1C(=O)N1CCC[C@H]1C(=O)N[C@@H](CCCCNC(=O)CC[C@H](NC(=O)COCCOCCNC(=O)CC[C@H](NC(=O)CCCCCCCCCCCCCCCS(=O)(=O)O)C(=O)O)C(=O)O)C(=O)N[C@@H](CC(=O)O)C(=O)N[C@@H](C)C(=O)N[C@@H](CO)C(=O)N1CCC[C@H]1C(=O)N[C@@H](CCC(=O)O)C(=O)N[C@@H](CCC(=O)O)C(=O)N[C@@H](CC(C)C)C(=O)N[C@@H](CCC(N)=O)C(=O)N[C@@H](CCCNC(=N)N)C(=O)N[C@@H](Cc1ccc(O)cc1)C(=O)N[C@@H](Cc1ccc(O)cc1)C(=O)N[C@@H](C)C(=O)N[C@@H](CO)C(=O)N[C@@H](CC(C)C)C(=O)N[C@@H](CCCNC(=N)N)C(=O)N[C@@H](Cc1c[nH]cn1)C(=O)N[C@@H](Cc1ccc(O)cc1)C(=O)N[C@@H](Cc1ccc(O)cc1)C(=O)N[C@@H](CC(N)=O)C(=O)N[C@@H](Cc1c[nH]c2ccccc12)C(=O)N[C@@H](CC(C)C)C(=O)N[C@H](C(=O)N[C@@H](CCCNC(=N)N)C(=O)N[C@@H](CCC(N)=O)C(=O)N[C@@H](CCCNC(=N)N)C(=O)N[C@@H](Cc1ccc(O)cc1)C(N)=O)[C@@H](C)O` [Compound 69, N{alpha-4}-(3-Methylbutanoyl)-N{Epsilon-10}-[(4S)-4-carboxy-4-[[2-[2-[2-[[(4S)-4-carboxy-4-(16-sulfohexadecanoylamino)butanoyl]amino]ethoxy]-ethoxy]acetyl]amino]butanoyl]-[Arg4,Pro9,Lys10,Gln18,Tyr28,Trp30,Leu31]-PYY-(4-36)], the Ki was greater than 10 µM on human Y1 receptor and 5.69 µM at human Y4 receptor. In data set [1], the half-life was 64 h.

`CC(C)CC(=O)N[C@@H](CCCNC(=N)N)C(=O)N1CCC[C@H]1C(=O)N[C@@H](CCC(=O)O)C(=O)N[C@@H](C)C(=O)N1CCC[C@H]1C(=O)NCC(=O)N[C@@H](CCCCNC(=O)CC[C@H](NC(=O)COCCOCCNC(=O)CC[C@H](NC(=O)CCCCCCCCCCCCCCCCC(=O)O)C(=O)O)C(=O)O)C(=O)N[C@@H](CC(=O)O)C(=O)N[C@@H](C)C(=O)N[C@@H](CO)C(=O)N1CCC[C@H]1C(=O)N[C@@H](CCC(=O)O)C(=O)N[C@@H](CCC(=O)O)C(=O)N[C@@H](CC(C)C)C(=O)N[C@@H](CCC(N)=O)C(=O)N[C@@H](CCCNC(=N)N)C(=O)N[C@@H](Cc1ccc(O)cc1)C(=O)N[C@@H](Cc1ccc(O)cc1)C(=O)N[C@@H](CCC(=O)O)C(=O)N[C@@H](CO)C(=O)N[C@@H](CC(C)C)C(=O)N[C@@H](CCCNC(=N)N)C(=O)N[C@@H](Cc1c[nH]cn1)C(=O)N[C@@H](Cc1ccc(O)cc1)C(=O)N[C@@H](Cc1ccc(O)cc1)C(=O)N[C@@H](CC(N)=O)C(=O)N[C@@H](Cc1c[nH]c2ccccc12)C(=O)N[C@@H](CC(C)C)C(=O)N[C@H](C(=O)N[C@@H](CCCNC(=N)N)C(=O)N[C@@H](CCC(N)=O)C(=O)N[C@@H](CCCNC(=N)N)C(=O)N[C@@H](Cc1ccc(O)cc1)C(N)=O)[C@@H](C)O` [Compound 50, N{alpha-4}-(3-Methylbutanoyl)-N{Epsilon-10}-[(4S)-4-carboxy-4-[[2-[2-[2-[[(4S)-4-carboxy-4-(17-carboxyheptadecanoylamino)butanoyl]amino]ethoxy]ethoxy]-acetyl]amino]butanoyl]-[Arg4,Lys10,Gln18,Glu22,Tyr28,Trp30,Leu31]-PYY(4-36)]: the Ki on human Y1 receptor and at human Y4 receptor was greater than 10 µM in each case. Further, in data set [1], the half-life was 94 h.

For the compound `CC(C)CC(=O)N[C@@H](CCCNC(=N)N)C(=O)N1CCC[C@H]1C(=O)N[C@@H](CCC(=O)O)C(=O)N[C@@H](CCCCNC(=O)CC[C@H](NC(=O)CCCCCCCCCCCCCCCCC(=O)O)C(=O)O)C(=O)N1CCC[C@H]1C(=O)N[C@H](C(=O)N[C@@H](CCC(=O)O)C(=O)N[C@@H](CC(=O)O)C(=O)N[C@@H](C)C(=O)N[C@@H](CO)C(=O)N1CCC[C@H]1C(=O)N[C@@H](CCC(=O)O)C(=O)N[C@@H](CCC(=O)O)C(=O)N[C@@H](CC(C)C)C(=O)N[C@@H](CCC(N)=O)C(=O)N[C@@H](CCCNC(=N)N)C(=O)N[C@@H](Cc1ccc(O)cc1)C(=O)N[C@@H](Cc1ccc(O)cc1)C(=O)N[C@H](C(=O)N[C@@H](CO)C(=O)N[C@@H](CC(C)C)C(=O)N[C@@H](CCCNC(=N)N)C(=O)N[C@@H](Cc1c[nH]cn1)C(=O)N[C@@H](Cc1ccc(O)cc1)C(=O)N[C@@H](Cc1ccc(O)cc1)C(=O)N[C@@H](CC(N)=O)C(=O)N[C@@H](Cc1c[nH]c2ccccc12)C(=O)N[C@@H](CC(C)C)C(=O)N[C@H](C(=O)N[C@@H](CCCNC(=N)N)C(=O)N[C@@H](CCC(N)=O)C(=O)N[C@@H](CCCNC(=N)N)C(=O)N[C@@H](Cc1ccc(O)cc1)C(N)=O)[C@@H](C)O)C(C)C)[C@@H](C)O` [Compound 44, N{alpha-4}-(3-Methylbutanoyl)-N{Epsilon-7}-[(4S)-4-carboxy-4-(17-carboxy-heptadecanoylamino)butanoyl]-[Arg4,Lys7,Thr9,Gln18,Val22,Tyr28,Trp30,Leu31]hPYY(4-36)], the Ki is 0.00033 µM on human Y2 receptor and greater than 10 µM on human Y1 receptor.

Usually Ki stands for the dissociation constant of the complex between target and ligand, obtained from inhibition or displacement. Low readings indicate a stronger hold on the target, high ones a looser hold on the target. The term half-life denotes how long it takes for the measured level to halve.

Source of the values: patent US10005824B2, “Selective PYY compounds and uses thereof” (Novo Nordisk A/S, priority 2015, dated 2018).
